Here are results for 28 compounds from patent US20090018134A1, “Compounds - 945” (AstraZeneca AB, priority 2007, published 2009).

T1 sequence (P42345 1362-2549): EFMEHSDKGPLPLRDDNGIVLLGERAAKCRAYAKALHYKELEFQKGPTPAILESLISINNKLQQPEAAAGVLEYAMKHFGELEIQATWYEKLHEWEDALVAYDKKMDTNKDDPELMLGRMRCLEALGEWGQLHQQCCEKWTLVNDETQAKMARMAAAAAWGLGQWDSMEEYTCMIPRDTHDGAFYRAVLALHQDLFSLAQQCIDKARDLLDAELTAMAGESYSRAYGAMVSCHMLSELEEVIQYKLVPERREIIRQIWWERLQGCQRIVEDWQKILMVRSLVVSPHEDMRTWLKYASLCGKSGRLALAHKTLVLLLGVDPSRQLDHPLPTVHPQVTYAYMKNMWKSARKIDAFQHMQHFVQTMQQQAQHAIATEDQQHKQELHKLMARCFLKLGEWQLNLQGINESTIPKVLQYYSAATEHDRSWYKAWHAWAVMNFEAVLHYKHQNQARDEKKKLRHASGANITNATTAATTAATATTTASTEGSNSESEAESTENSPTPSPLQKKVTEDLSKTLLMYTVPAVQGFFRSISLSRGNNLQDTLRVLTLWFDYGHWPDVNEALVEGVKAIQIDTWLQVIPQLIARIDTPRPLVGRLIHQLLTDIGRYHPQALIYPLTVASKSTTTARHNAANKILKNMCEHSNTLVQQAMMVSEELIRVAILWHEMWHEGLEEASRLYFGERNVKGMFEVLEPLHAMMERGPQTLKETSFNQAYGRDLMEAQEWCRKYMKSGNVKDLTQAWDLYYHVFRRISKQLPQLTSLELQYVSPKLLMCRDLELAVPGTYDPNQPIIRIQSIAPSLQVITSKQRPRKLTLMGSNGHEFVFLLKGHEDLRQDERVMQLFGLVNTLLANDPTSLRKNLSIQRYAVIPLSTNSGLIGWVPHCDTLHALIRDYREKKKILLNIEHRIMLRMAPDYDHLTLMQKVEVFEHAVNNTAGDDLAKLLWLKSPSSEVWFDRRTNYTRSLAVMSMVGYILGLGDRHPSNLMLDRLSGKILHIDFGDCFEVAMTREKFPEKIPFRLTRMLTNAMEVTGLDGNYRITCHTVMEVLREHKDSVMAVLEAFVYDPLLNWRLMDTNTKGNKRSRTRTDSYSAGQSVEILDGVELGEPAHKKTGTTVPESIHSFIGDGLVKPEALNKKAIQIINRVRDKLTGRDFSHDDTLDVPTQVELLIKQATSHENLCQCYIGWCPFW

One test addresses T1, mTOR (Homo sapiens, UniProt P42345).
T1 construct: FLAG; made in house
Put plainly: In Vitro mTOR Kinase Assay (Echo), Test (a)(ii). The format is biochemical.
Conditions: not given
The gist of the method: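 AlphaScreen read-out: biotinylated substrate phosphorylation was detected with anti-p70 S6K (T389) 1A5 antibody, Protein A acceptor and streptavidin donor beads after overnight dark incubation at room temperature. Enzyme was FLAG-mTOR 1362-2549 from stable HEK293 cells.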
As for `C[C@H]1COCCN1c1cc(C2(S(=O)(=O)c3ccccc3)CC2)nc(-c2ccc(NC(=O)NCCCl)cc2)n1` [Example 36ee, 1-[4-[4-[1-(benzenesulfonyl)cyclopropyl]-6-[(3S)-3-methylmorpholin-4-yl]pyrimidin-2-yl]phenyl]-3-(2-chloroethyl)urea], the IC50 (usually the concentration needed to halve the response being measured) was determined as 9.58 nM.

The same test, now with this note: table of enzyme assay Test (a)(ii); read-out: Test (a)(ii) IC50.
For `C[C@H](CO)NC(=O)Nc1ccc(-c2nc(N3CCOC[C@@H]3C)cc(C3(S(=O)(=O)c4ccccc4)CC3)n2)cc1` [Example 36ed, 1-[4-[4-[1-(benzenesulfonyl)cyclopropyl]-6-[(3S)-3-methylmorpholin-4-yl]pyrimidin-2-yl]phenyl]-3-[(2R)-1-hydroxypropan-2-yl]urea], the IC50 was determined as 7.04 nM.

With `CCS(=O)(=O)C1(c2cc(N3CCOC[C@@H]3C)nc(-c3ccc(NC(=O)NCCF)cc3)n2)CC1` [Example 36ef, 1-[4-[4-(1-ethylsulfonylcyclopropyl)-6-[(3S)-3-methylmorpholin-4-yl]pyrimidin-2-yl]phenyl]-3-(2-fluorethyl)urea], the IC50 came to 8.41 nM.

In the case of `CCS(=O)(=O)C1(c2cc(N3CCOC[C@@H]3C)nc(-c3ccc(NC(=O)NCC(F)F)cc3)n2)CC1` [Example 36eg, 3-(2,2-difluoroethyl)-1-[4-[4-(1-ethylsulfonylcyclopropyl)-6-[(3S)-3-methylmorpholin-4-yl]pyrimidin-2-yl]phenyl]urea], the IC50 was found to be 8.77 nM.

Regarding `C[C@H]1COCCN1c1cc(C2(S(=O)(=O)C3CC3)CCC2)nc(-c2ccc(NC(=O)NCCO)cc2)n1` [Example 36f, 1-[4-[4-(1-cyclopropylsulfonylcyclobutyl)-6-[(3S)-3-methylmorpholin-4-yl]pyrimidin-2-yl]phenyl]-3-(2-hydroxyethyl)urea], the IC50 was found to be 2.78 nM.

For the compound `C[C@H]1COCCN1c1cc(C2(S(=O)(=O)C3CC3)CCC2)nc(-c2ccc(NC(=O)NCCC#N)cc2)n1` [Example 36g, 3-(2-cyanoethyl)-1-[4-[4-(1-cyclopropylsulfonylcyclobutyl)-6-[(3S)-3-methylmorpholin-4-yl]pyrimidin-2-yl]phenyl]urea], the IC50 stood at 8.41 nM.

With `C[C@H]1COCCN1c1cc(C2(S(=O)(=O)C3CC3)CCC2)nc(-c2ccc(NC(=O)Nc3cnn(C)c3)cc2)n1` [Example 36h, 1-[4-[4-(1-cyclopropylsulfonylcyclobutyl)-6-[(3S)-3-methylmorpholin-4-yl]pyrimidin-2-yl]phenyl]-3-(1-methylpyrazol-4-yl)urea], the IC50 came to 3.14 nM.

For the compound `C[C@H]1COCCN1c1cc(C2(S(=O)(=O)C3CC3)CCC2)nc(-c2ccc(NC(=O)NCc3ncc[nH]3)cc2)n1` [Example 36i, 1-[4-[4-(1-cyclopropylsulfonylcyclobutyl)-6-[(3S)-3-methylmorpholin-4-yl]pyrimidin-2-yl]phenyl]-3-(1H-imidazol-2-ylmethyl)urea], the IC50 was determined as 51.8 nM.

On to `C[C@H]1COCCN1c1cc(C2(S(=O)(=O)C3CC3)CCCC2)nc(-c2ccc(NC(=O)NC3CC3)cc2)n1` [Example 36j, 3-cyclopropyl-1-[4-[4-(1-cyclopropylsulfonylcyclopentyl)-6-[(3S)-3-methylmorpholin-4-yl]pyrimidin-2-yl]phenyl]urea], for which the IC50 worked out at 18 nM.

For `C[C@H]1COCCN1c1cc(C2(S(=O)(=O)C3CC3)CCCC2)nc(-c2ccc(NC(=O)NCCO)cc2)n1` [Example 36k, 1-[4-[4-(1-cyclopropylsulfonylcyclopentyl)-6-[(3S)-3-methylmorpholin-4-yl]pyrimidin-2-yl]phenyl]-3-(2-hydroxyethyl)urea], the IC50 was 13.1 nM.

For `C[C@H]1COCCN1c1cc(C2(S(=O)(=O)C3CC3)CCCC2)nc(-c2ccc(NC(=O)NCCC#N)cc2)n1` [Example 36l, 3-(2-cyanoethyl)-1-[4-[4-(1-cyclopropylsulfonylcyclopentyl)-6-[(3S)-3-methylmorpholin-4-yl]pyrimidin-2-yl]phenyl]urea], the IC50 was 42.8 nM.

As for `C[C@H]1COCCN1c1cc(C2(S(=O)(=O)C3CC3)CCCC2)nc(-c2ccc(NC(=O)NCCCO)cc2)n1` [Example 36m, 1-[4-[4-(1-cyclopropylsulfonylcyclopentyl)-6-[(3S)-3-methylmorpholin-4-yl]pyrimidin-2-yl]phenyl]-3-(3-hydroxypropyl)urea], the IC50 stood at 34.7 nM.

With `Cc1csc(S(=O)(=O)C2(c3cc(N4CCOC[C@@H]4C)nc(-c4ccc(NC(=O)NCc5ncc[nH]5)cc4)n3)CC2)n1` [Example 36n, 3-(1H-imidazol-2-ylmethyl)-1-[4-[4-[(3S)-3-methylmorpholin-4-yl]-6-[1-[(4-methyl-1,3-thiazol-2-yl)sulfonyl]cyclopropyl]pyrimidin-2-yl]phenyl]urea], the IC50 came to 24.8 nM.

Regarding `Cc1csc(S(=O)(=O)C2(c3cc(N4CCOC[C@@H]4C)nc(-c4ccc(NC(=O)NCCC#N)cc4)n3)CC2)n1` [Example 36o, 3-(2-cyanoethyl)-1-[4-[4-[(3S)-3-methylmorpholin-4-yl]-6-[1-[(4-methyl-1,3-thiazol-2-yl)sulfonyl]cyclopropyl]pyrimidin-2-yl]phenyl]urea], the IC50 was 3.58 nM.

As to `Cc1csc(S(=O)(=O)C2(c3cc(N4CCOC[C@@H]4C)nc(-c4ccc(NC(=O)Nc5ncns5)cc4)n3)CC2)n1` [Example 36p, 1-[4-[4-[(3S)-3-methylmorpholin-4-yl]-6-[1-[(4-methyl-1,3-thiazol-2-yl)sulfonyl]cyclopropyl]pyrimidin-2-yl]phenyl]-3-(1,2,4-thiadiazol-5-yl)urea], the IC50 worked out at 1.61 nM.

As to `Cc1csc(S(=O)(=O)C2(c3cc(N4CCOC[C@@H]4C)nc(-c4ccc(NC(=O)NC5(CO)CC5)cc4)n3)CC2)n1` [Example 36q, 3-[1-(hydroxymethyl)cyclopropyl]-1-[4-[4-[(3S)-3-methylmorpholin-4-yl]-6-[1-[(4-methyl-1,3-thiazol-2-yl)sulfonyl]cyclopropyl]pyrimidin-2-yl]phenyl]urea], the IC50 is 88.9 nM.

`CS(=O)(=O)C1(c2cc(N3CCOCC3)nc(-c3ccc(NC(=O)NCCC#N)cc3)n2)CC1` [Example 36r, 3-(2-cyanoethyl)-1-[4-[4-(1-methylsulfonylcyclopropyl)-6-morpholin-4-ylpyrimidin-2-yl]phenyl]urea]: the IC50 came to 7.33 nM.

Take `CS(=O)(=O)C1(c2cc(N3CCOCC3)nc(-c3ccc(NC(=O)Nc4ncns4)cc3)n2)CC1` [Example 36s, 1-[4-[4-(1-methylsulfonylcyclopropyl)-6-morpholin-4-ylpyrimidin-2-yl]phenyl]-3-(1,2,4-thiadiazol-5-yl)urea]: the IC50 came out at 4.75 nM.

On to `CS(=O)(=O)C1(c2cc(N3CCOCC3)nc(-c3ccc(NC(=O)NCc4ncc[nH]4)cc3)n2)CC1` [Example 36t, 3-(1H-imidazol-2-ylmethyl)-1-[4-[4-(1-methylsulfonylcyclopropyl)-6-morpholin-4-ylpyrimidin-2-yl]phenyl]urea], for which the IC50 came out at 194 nM.

Regarding `CCS(=O)(=O)C1(c2cc(N3CCOC[C@@H]3C)nc(-c3ccc(NC(=O)NCCC#N)cc3)n2)CC1` [Example 36u, 3-(2-cyanoethyl)-1-[4-[4-(1-ethylsulfonylcyclopropyl)-6-[(3S)-3-methylmorpholin-4-yl]pyrimidin-2-yl]phenyl]urea], the IC50 stood at 9.22 nM.

In the case of `CCS(=O)(=O)C1(c2cc(N3CCOC[C@@H]3C)nc(-c3ccc(NC(=O)NC4(CO)CC4)cc3)n2)CC1` [Example 36v, 1-[4-[4-(1-ethylsulfonylcyclopropyl)-6-[(3S)-3-methylmorpholin-4-yl]pyrimidin-2-yl]phenyl]-3-[1-(hydroymethyl)cyclopropyl]urea], the IC50 came to 467 nM.

`CCS(=O)(=O)C1(c2cc(N3CCOC[C@@H]3C)nc(-c3ccc(NC(=O)NCc4ncc[nH]4)cc3)n2)CC1` [Example 36w, 1-[4-[4-(1-ethylsulfonylcyclopropyl)-6-[(3S)-3-methylmorpholin-4-yl]pyrimidin-2-yl]phenyl]-3-(1H-imidazol-2-ylmethyl)urea]: the IC50 was 110 nM.

As to `C[C@H]1COCCN1c1cc(C2(S(=O)(=O)c3ccc(F)cc3)CC2)nc(-c2ccc(NC(=O)NC3(CO)CC3)cc2)n1` [Example 36x, 1-[4-[4-[1-(4-fluorophenyl)sulfonylcyclopropyl]-6-[(3S)-3-methylmorpholin-4-yl]pyrimidin-2-yl]phenyl]-3-[1-(hydroxymethyl)cyclopropyl]urea], the IC50 came to 182 nM.

With `C[C@H]1COCCN1c1cc(C2(S(=O)(=O)c3ccc(F)cc3)CC2)nc(-c2ccc(NC(=O)NCCC#N)cc2)n1` [Example 36y, 3-(2-cyanoethyl)-1-[4-[4-[1-(4-fluorophenyl)sulfonylcyclopropyl]-6-[(3S)-3-methylmorpholin-4-yl]pyrimidin-2-yl]phenyl]urea], the IC50 came to 1.31 nM.

As for `C[C@H]1COCCN1c1cc(C2(S(=O)(=O)c3ccc(F)cc3)CC2)nc(-c2ccc(NC(=O)Nc3ncns3)cc2)n1` [Example 36z, 1-[4-[4-[1-(4-fluorophenyl)sulfonylcyclopropyl]-6-[(3S)-3-methylmorpholin-4-yl]pyrimidin-2-yl]phenyl]-3-(1,2,4-thiadiazol-5-yl)urea], the IC50 was found to be 2.08 nM.

In the case of `CNC(=S)Nc1ccc(-c2nc(N3CCOC[C@@H]3C)cc(C3(S(=O)(=O)C4CC4)CC3)n2)cc1` [Example 37a, 1-[4-[4-(1-cyclopropylsulfonylcyclopropyl)-6-[(3S)-3-methylmorpholin-4-yl]pyrimidin-2-yl]phenyl]-3-methylthiourea], the IC50 stood at 26 nM.

Take `C[C@H]1COCCN1c1cc(C2(S(=O)(=O)c3ccccc3)CC2)nc(-c2ccc(NC(=S)NCCO)cc2)n1` [Example 37aa, 1-[4-[4-[1-(benzenesulfonyl)cyclopropyl]-6-[(3S)-3-methylmorpholin-4-yl]pyrimidin-2-yl]phenyl]-3-(2-hydroxyethyl)thiourea]: the IC50 was 5.67 nM.

With `C[C@H]1COCCN1c1cc(C2(S(=O)(=O)c3ccncc3)CC2)nc(-c2ccc(NC(=S)NCCO)cc2)n1` [Example 37ad, 3-(2-hydroxyethyl)-1-[4-[4-[(3S)-3-methylmorpholin-4-yl]-6-(1-pyridin-4-ylsulfonylcyclopropyl)pyrimidin-2-yl]phenyl]thiourea], the IC50 turned out to be 2.63 nM.
